One data set concerns L1210 leukemia cells. Put plainly: cells. Type of data set: cell-based, mouse. To be noted: for IC50: Mus musculus. The method, then: The cytotoxic action of the compounds can be established in various test systems such as, for example, in the soft agar colony test on mouse leukemia cells in vitro.
Formation of colonies of L1210 leukemia cells in soft agar:
In this test, substances having cytostatic activity bring about a reduction in the observed number of colonies compared with an untreated control. The details of the test procedure are as follows:
500 L1210 leukemia cells per plate are incubated with various concentrations of the compound of the formula II, obtained as in Example 3, as test substance at 37° C. for 1 hour. The cells are then washed twice with McCoy 5A medium and finally, after addition of 0.3% agar, poured into Petri dishes. Controls are incubated merely with fresh medium. In addition, in place of the incubation for 1 hour, various concentrations of the test substance are admixed to the upper agar layer, in order thus to acheive continuous exposure of the cells throughout the incubation time. After the agar has solidified, the plates are incubated in an incubator at 37° C. for 7 days (5% CO2, 95% relative humidity). The number of resultant colonies with a diameter >60μ is then counted. The results are expressed as the quotient of the number of colonies on treated agar plates and the number of colonies on the untreated control. The IC50 was obtained, as a measure of the activity of the test substance, from the dose-effect curve thus obtained. The comparison substance used in this test is the cytostatic adriamycin.

The conditions of data set [1]: in words; cited from earlier work.
The test system of another data set is leukemia cells. As to conditions: cited from earlier work.
[2] abbreviates: L1210, 168 h, continuous exposure, substance in upper agar layer, 7 days at 37° C., read-out: Stem cell assay cont. IC50.
Where [3] appears, read: L1210, incubation for 1 hour at 37° C., then washed, 7 days in agar, read-out: Stem cell assay 1 h IC50.

The values below come from US4849409A, “Diels-alder adduct from streptazoline and naphthoquinones and its oxidation products, which have cytotoxic and antimicrobial activity and which act against protozoa” (Hoechst Aktiengesellschaft, priority 1986, dated 1989).

SMILES strings stand for the structures. In brackets after ≈: the same amount, converted by molar mass. Like-named read-outs stand apart in the source and are kept apart here.

As to `CC=C1C2=CCCN3C(=O)OC(C1O)C23` (stereo not shown) [Streptazoline], in the data set on L1210 leukemia cells, the “cytotoxicity (assessment)” value is “no cytotoxicity worthy of note”. The IC50 in the data set with L1210 leukemia cells (setting [2]) and in the data set on L1210 leukemia cells (setting [3]) was 10 µg/mL (≈ 48.3 µM) throughout. Also, the antibiotic action result in data set [1] is reported as “only a very weak antibiotic”. Also, the cytotoxic action result with leukemia cells is on record as “no cytotoxic action”.

Consider `CC1C2=C(C(=O)c3c(O)ccc(O)c3C2=O)[C@@H]2CCN3C(=O)O[C@@H]4[C@@H](O)C1=C2[C@@H]43` (stereo partly shown) [Test substance], for which the “cytotoxicity (assessment)” value in the data set with L1210 leukemia cells is “cytotoxicity comparable to that of adriamycin”. Further, the values for the IC50 with L1210 leukemia cells (setting [2]) and with L1210 leukemia cells (setting [3]) were 0.04 µg/mL (≈ 0.101 µM) and 0.26 µg/mL (≈ 0.658 µM), respectively.

Consider `COc1cccc2c1C(=O)c1c(O)c3c(c(O)c1C2=O)C[C@@](O)(C(=O)CO)C[C@@H]3O[C@H]1C[C@H](N)[C@H](O)[C@H](C)O1` [Adriamycin], for which the IC50 in the data set with L1210 leukemia cells (setting [2]) was determined as 0.02 µg/mL (≈ 0.0368 µM); with L1210 leukemia cells (setting [3]), 0.04 µg/mL (≈ 0.0736 µM).

The term IC50 denotes the concentration needed to halve the response being measured.
